We go through four molecules from patent publication US12583823B2, “Crystal form of Daprodustat, preparation method therefor and use thereof” (priority 2019, dated 2026).

The data set in a line: Saturation solubility in water (HPLC). As to conditions: for Saturation solubility: stirring at room temperature for 12 h, HPLC. The format is physicochemical. The source says: Test product: the crystal form M, crystal form CS1, crystal form CS9 and crystal form K of the compound of the formula (I), preparation methods thereof being respectively shown in Example 1, Comparative example 1, Comparative example 2 and Comparative example 3.
The operating conditions of HPLC were as follows: • Instrument: high performance liquid chromatograph (model: Thermo U3000) • Chromatographic column: Agilent C18 column (5 μm, 150 mm×4.6 mm) • Mobile phase composition and gradient elution procedure:
• Detection wavelength: 260.4 nm • Flow rate: 1 mL/min • Injection volume: 15 μL • Column temperature: 30° C.

`O=C(O)CNC(=O)C1C(=O)N(C2CCCCC2)C(=O)N(C2CCCCC2)C1=O` [Crystal form CS1, N-[(1,3-dicyclohexylhexahydro-2,4,6-trioxo-5-pyrimidinyl)carbonyl]glycine, reference compound] had a Saturation solubility of 24.48 µg/mL.

The molecule `O=C(O)CNC(=O)C1C(=O)N(C2CCCCC2)C(=O)N(C2CCCCC2)C1=O` [Crystal form M, N-[(1,3-dicyclohexylhexahydro-2,4,6-trioxo-5-pyrimidinyl)carbonyl]glycine] displayed a Saturation solubility of 42.47 µg/mL. Further, the “Saturation solubility compared with those of the crystal form K, the crystal form CS1 and the crystal form CS9” value (result in words) was “significantly higher”.

`O=C(O)CNC(=O)C1C(=O)N(C2CCCCC2)C(=O)N(C2CCCCC2)C1=O` [Crystal form CS9, N-[(1,3-dicyclohexylhexahydro-2,4,6-trioxo-5-pyrimidinyl)carbonyl]glycine, reference compound] registered a Saturation solubility of 19.4 µg/mL.

For `O=C(O)CNC(=O)C1C(=O)N(C2CCCCC2)C(=O)N(C2CCCCC2)C1=O` [Crystal form K, N-[(1,3-dicyclohexylhexahydro-2,4,6-trioxo-5-pyrimidinyl)carbonyl]glycine], the Saturation solubility stood at 23.36 µg/mL.
